Measurements reported in PMC6961122 (Bioorganic & Medicinal Chemistry, 2020).

What was measured:
U87 cells = assay: Cell viability assay (PrestoBlue, 5 d) in U87 glioma cells; assay type: cell-based; conditions: library screen, 5 d treatment, mean of three independent experiments in triplicates, read-out: EC50 U87 ± SEM
Procedure: (§1) The antiproliferative activity of a total of 100 compounds was tested against U87 and T98 glioma cell lines, using TMZ[3] and the Topoisomerase I inhibitor SN-38[18] as positive controls. Cells were treated with the library members for 5 d at three different concentrations (3, 30 and 300 µM) and cell viability determined using the PrestoBlue reagent. Half-maximal effective concentration (EC50) values were calculated from the corresponding dose-response curves and plotted in Fig. 2a as a heatmap to facilitate data analysis, with black meaning no activity and dark to light green to yellow transitions indicating decreasing EC50 values (=increasing potencies). Table 1 of the Suppl. Data contains the corresponding EC50 values ± SEM.
(§2) INK128 and SN-38 were used as positive controls. […] Structurally, these derivatives differed in the size of the alkyl group of the N1 position and the presence or absence of an oxygen atom in that moiety (see Suppl. Data).
(§3) U87 and T98 cells (ATCC) were cultured in DMEM (Gibco), supplemented with 10% (v/v) FBS (Gibco) and 2 mM L-Glutamine (Gibco) in a standard incubator (95% humidity, 5% CO2), and subcultured twice per week through trypsinization. G317 patient-derived glioma cells were established by the Glioma Cellular Genetics Resource (gcgr.org.uk) funded by Cancer Research UK. Ethics approval for use of patient-derived cells and early access confirmation to reagents from the Glioma Cellular Genetics Resource assured that all ethical issues according to UK legislation are fulfilled. G317 were cultured in DMEM/HAMS-F12 (Sigma) supplemented with 1.5 g L^−1 D-(+)-Glucose (Sigma), MEM non-essential aminoacids (Gibco), 0.015% (w/v) Penicillin-Streptomycin (Gibco), 0.012% (w/v) BSA (Gibco), 0.1 mM β-mercaptoethanol (Gibco), B27 (Gibco) and N2 supplements (Gibco). Cells were detached using accutase solution (Sigma) and subcultured once per week. Before adding to the cells, medium was supplemented with 10 ng ml^−1 mouse EGF (Preprotech), 10 ng ml^−1 human FGF (Preprotech), and 1 µg ml^−1 Laminin (Sigma).
(§4) 1 × 10^3 U87 cells/well, 5 × 10^2 T98 cells/well, 1 × 10^4 G317 cells/well, 1 × 10^4 HBVP cells/well and 1 × 10^4 bEnd3 cells/well were seeded in 96-well plates. After 48 h in culture, cells were treated with the inhibitors for 5 d. For GI50 determination, the viability of a triplicate sample of each experiment before treatment was measured with the PrestoBlue Reagent (Invitrogen), to establish a basepoint 0% of growth. […] ZIP Synergy scores were obtained with Synergy finder.[22] Viability percentage, EC50 and GI50 values were obtained using GraphPad Prism version 8.0.0 for Windows, GraphPad Software, San Diego, California USA, www.graphpad.com.

T98 cells = assay: Cell viability assay (PrestoBlue, 5 d) in T98 glioma cells; assay type: cell-based; conditions: library screen, 5 d treatment, mean of three independent experiments in triplicates, read-out: EC50 T98 ± SEM
Procedure: as §1, §2, §3, §4

SMILES	EC50 (U87 cells) [µM]	EC50 (T98 cells) [µM]
CNc1ncc2c(-c3ccc(N4CCNCC4)nc3)nn(Cc3cn(C4CCCCC4O)nn3)c2n1 (centres unmarked) [eSM123]	25.4 ± 4.66	24.2 ± 3.6
CN(C)C1CCN(CCn2nc(-c3cnc4[nH]ccc4c3)c3c(N)ncnc32)CC1 [eCF502]	15.2 ± 2.36	17.6 ± 3.93
CCOC(Cn1nc(-c2ccc(OC)c(OC)c2)c2c(N)ncnc21)OCC [eCF204]	> 30	> 30
CN(C)C1CCN(CCn2nc(-c3ccc(CC#N)cc3)c3c(N)ncnc32)CC1 [eCF600]	> 30	> 30
COc1cc(-c2nn(CCN3CCCC(N(C)C)C3)c3ncnc(N)c23)ccc1NC(=O)OC(C)(C)C (centres unmarked) [eCF603]	> 30	> 30
COc1cc(-c2nn(CCN3CCC(N(C)C)CC3)c3ncnc(N)c23)ccc1NC(=O)CCc1ccccc1 [eCF531]	22.6 ± 5.38	11.1 ± 1.1
COc1cc(-c2nn(CCN3CCC(N(C)C)CC3)c3ncnc(N)c23)ccc1NC(=O)Oc1ccccc1 [eCF535]	> 30	16.7 ± 2.8
COc1cc(-c2nn(CCN3CCC(N(C)C)CC3)c3ncnc(N)c23)ccc1NC(=O)N(C)C(C)(C)C [eCF608]	21.1 ± 3.02	14.4 ± 7.53
CNc1ncc2c(-c3ccc(N4CCN(C)CC4)cc3)nn(CC3CCCC3)c2n1 [eSM156]	8 ± 3.32	1.77 ± 0.865
Cc1ccc(-c2nn(CCN3CCC(C)CC3)c3ncnc(N)c23)cc1 [eCF110]	> 30	> 30
Cc1ccc(-c2nn(CCN3CCCCC3)c3ncnc(N)c23)cc1 [eCF111]	> 30	> 30
CNc1ncc2c(-c3ccc(N4CCNCC4)nc3)nn(Cc3cn(-c4ccc(Cl)cc4)nn3)c2n1 [eSM143]	3.06 ± 0.833	3.02 ± 0.568
CN(C)CC1CCN(CCn2nc(C#Cc3ccccc3)c3c(N)ncnc32)CC1 [eCF230]	18.2 ± 1.2	13.7 ± 1.84
CNc1ncc2c(-c3ccc(N4CCNCC4)nc3)nn(CC3CCCC3)c2n1 [eSM107]	3.33 ± 0.166	2.42 ± 0.504
COc1cc(-c2nn(CCN3CCC(N(C)C)CC3)c3ncnc(N)c23)ccc1NC(=O)OC(C)(C)C [eCF581]	> 30	> 30
COc1cc(-c2nn(CCN3CCC(N(C)C)CC3)c3ncnc(N)c23)ccc1NC(=O)CC(C)(C)C [eCF526]	> 30	> 30
CNc1ncc2c(-c3ccc(OC)c(OC)c3)nn(CC3CCCC3)c2n1 [eSM104]	> 30	17.5 ± 2.14
COc1cc(-c2nn(CCN3CCC(N(C)C)CC3)c3ncnc(N)c23)ccc1NC(=O)Oc1ccccc1 [eCF532]	29.2 ± 3.88	9.1 ± 1.37
CNc1ncc2c(-c3ccc(N(C)C)nc3)nn(Cc3cn(Cc4ccccc4)nn3)c2n1 [eSM146]	> 30	> 30
CNc1ncc2c(-c3cccc(C(N)=O)c3)nn(CC3CCCC3)c2n1 [eSM108]	23.8 ± 2.78	> 30
CNc1ncc2c(-c3ccc(OC)cc3)nn(CC3CCCC3)c2n1 [eSM105]	20.9 ± 1.73	6.36 ± 0.563
Cc1ccc(-c2nn(CCN3CCOCC3)c3ncnc(N)c23)cc1 [eCF102]	> 30	> 30
CNc1ncc2c(-c3ccc(N4CCN(C(=O)C(C)(C)C)CC4)nc3)nn(Cc3cn(Cc4ccccc4)nn3)c2n1 [eSM153]	> 30	> 30
CNc1ncc2c(-c3ccc(C(N)=O)cc3)nn(CC3CCCC3)c2n1 [eSM106]	> 30	> 30
CN(C)C1CCN(CCn2nc(-c3ccc4c(ccn4C(=O)OC(C)(C)C)c3)c3c(N)ncnc32)CC1 [eCF548]	7.18 ± 1.5	6.87 ± 1.77

SMILES	EC50 (U87 cells) [µM]	EC50 (T98 cells) [µM]
CN(C)CC1CCN(CCn2nc(-c3ccc4ncccc4c3)c3c(N)ncnc32)CC1 [eCF223]	> 30	> 30
CNc1ncc2c(-c3ccc(N4CCNCC4)nc3)nn(Cc3cn(C4CCCC4O)nn3)c2n1 (centres unmarked) [eSM121]	16.5 ± 1.88	26.3 ± 1.81
COc1cc(-c2nn(CCN3CCC(N4CCCC4)CC3)c3ncnc(N)c23)ccc1NC(=O)OC(C)(C)C [eCF518]	12 ± 0.168	3.48 ± 0.567
Nc1ncnc2c1c(-c1ccc(F)cc1)nn2CC1CCCC1 [eSM211]	> 30	24.6 ± 3.25
COc1cc(-c2nn(CCN3CCC(N(C)C)CC3)c3ncnc(N)c23)ccc1NC(=O)Cc1ccccc1 [eCF530]	> 30	22.8 ± 3.21
CNc1ncc2c(-c3ccc(C(F)(F)F)cc3)nn(CC3OCCO3)c2n1 [eSM114]	> 30	> 30
CNc1ncc2c(-c3cnc4[nH]ccc4c3)nn(Cc3cn(Cc4ccccc4)nn3)c2n1 [eSM145]	14.2 ± 0.557	9.11 ± 1.67
CN(C)C1CCN(CCn2nc(-c3ccc(CC(=O)OC(C)(C)C)cc3)c3c(N)ncnc32)CC1 [eCF553]	> 30	6.58 ± 2.18
CN(C)C1CCN(CCn2nc(-c3ccc(NC(=O)OC(C)(C)C)c(O)c3)c3c(N)ncnc32)CC1 [eCF562]	> 30	> 30
Cc1ccc(-c2nn(CCN3CCC(N(C)C)CC3)c3ncnc(N)c23)cc1 [eCF109]	> 30	26.3 ± 7.3
CNc1ncc2c(-c3ccc(N4CCN(C)CC4)nc3)nn(Cc3cn(Cc4ccccc4)nn3)c2n1 [eSM134]	18.9 ± 5.27	18.8 ± 3.57
CNc1ncc2c(-c3ccc(N4CCNCC4)nc3)nn(Cc3cn(Cc4ccccc4)nn3)c2n1 [eSM119]	9.73 ± 1.22	11.3 ± 0.882
CNc1ncc2c(-c3ccc(N4CCN(C(=O)NC(C)(C)C)CC4)nc3)nn(CC3CCCC3)c2n1 [eSM149]	> 30	> 30
COc1cc(-c2nn(CCN3CCC(N4CCCCC4)CC3)c3ncnc(N)c23)ccc1NC(=O)OC(C)(C)C [eCF519]	17 ± 2.37	3.14 ± 0.331
Nc1ncc(-c2ccc(-c3nn(CC4CCCC4)c4ncnc(N)c34)cc2)o1 [eCF341]	20.3 ± 2.63	26.2
CNc1ncc2c(-c3ccc(-c4ccccc4)cc3)nn(CC3OCCO3)c2n1 [eSM111]	> 30	> 30
CCNc1ncc2c(-c3ccc(N4CCNCC4)nc3)nn(CC3OCCO3)c2n1 [eSM133]	> 30	15.6 ± 2.75
CN(C)CC1CCN(CCn2nc(-c3ccc4[nH]ccc4c3)c3c(N)ncnc32)CC1 [eCF221]	18.7 ± 4.91	16.8 ± 3.66
Cc1ccc(-c2nn(CCN3CCC(O)CC3)c3ncnc(N)c23)cc1 [eCF106]	> 30	> 30
CNc1ncc2c(-c3ccc(N4CCNCC4)nc3)nn(Cc3cn(-c4ccccc4)nn3)c2n1 [eSM139]	6.09 ± 1.39	8.6 ± 3.39
Nc1ncnc2c1c(-c1cnc3[nH]ccc3c1)nn2CC1OCCO1 [eCF307]	11.3 ± 2.56	13.1 ± 2.65
COc1ccc(-c2nn(CCN3CCC(CN(C)C)CC3)c3ncnc(N)c23)cc1OC [eCF224]	> 30	> 30
CN(C)CC1CCN(CCn2nc(-c3ccoc3)c3c(N)ncnc32)CC1 [eCF226]	> 30	> 30
Nc1ncnc2c1c(-c1ccc(C(F)(F)F)cc1)nn2CC1CCCC1 [eSM210]	25 ± 3.15	18.8 ± 2.69
